In the NIST ThermoML archive (doi:10.1021/acs.jced.8b00008):
± gives the expanded uncertainty stated by the source.

Assay: xn = mol fraction of the nth substance listed
Settings: for surface tension liquid-gas: 293 K, Pendant drop shape; for viscosity / speed of sound / mass density: 102 kPa, Liquid; for viscosity: Concentric cylinders viscometry; for speed of sound: Single path-length method; for mass density: Vibrating tube method

CC1CCCCC1 [methylcyclohexane] + CCCCCCCCCCCC
Settings	surface tension liquid-gas [mN/m]
x1 = 0.1	24.86 ± 0.32
x1 = 0.2001	24.84 ± 0.32
x1 = 0.3	24.76 ± 0.32
x1 = 0.4001	24.73 ± 0.32
x1 = 0.5	24.5 ± 0.32
x1 = 0.5999	24.34 ± 0.32
x1 = 0.7	24.25 ± 0.32
x1 = 0.7999	24.11 ± 0.31
x1 = 0.9	23.95 ± 0.31

Settings	mass density [kg/m3]	speed of sound [m/s]	viscosity [mPa·s]
293.15 K, x1 = 0.1	749.76 ± 0.7	1293.1 ± 0.6	1.41 ± 0.01
293.15 K, x1 = 0.2001	750.92 ± 0.7	1288.3 ± 0.6	1.34 ± 0.01
293.15 K, x1 = 0.3	752.24 ± 0.7	1283.1 ± 0.6	1.26 ± 0.01
293.15 K, x1 = 0.4001	753.73 ± 0.7	1277.5 ± 0.6	1.18 ± 0.01
293.15 K, x1 = 0.5	755.42 ± 0.7	1271.7 ± 0.6	1.11 ± 0.01
293.15 K, x1 = 0.5999	757.37 ± 0.7	1265.3 ± 0.6	1.03 ± 0.01
293.15 K, x1 = 0.7	759.54 ± 0.7	1258.9 ± 0.5	0.95 ± 0.012
293.15 K, x1 = 0.7999	762.21 ± 0.7	1251.8 ± 0.5	0.875 ± 0.012
293.15 K, x1 = 0.9	765.42 ± 0.7	1244.3 ± 0.5	0.798 ± 0.012
298.15 K, x1 = 0.1	746.11 ± 0.7	1273.6 ± 0.6	1.29 ± 0.01
298.15 K, x1 = 0.2001	747.24 ± 0.7	1268.7 ± 0.6	1.23 ± 0.01
298.15 K, x1 = 0.3	748.53 ± 0.7	1263.4 ± 0.6	1.16 ± 0.01
298.15 K, x1 = 0.4001	749.97 ± 0.7	1257.7 ± 0.6	1.09 ± 0.01
298.15 K, x1 = 0.5	751.63 ± 0.7	1251.7 ± 0.6	1.04 ± 0.01
298.15 K, x1 = 0.5999	753.5 ± 0.7	1245 ± 0.6	0.968 ± 0.012
298.15 K, x1 = 0.7	755.59 ± 0.7	1238.2 ± 0.5	0.898 ± 0.012
298.15 K, x1 = 0.7999	758.17 ± 0.7	1230.8 ± 0.5	0.828 ± 0.012
298.15 K, x1 = 0.9	761.26 ± 0.7	1222.7 ± 0.5	0.755 ± 0.012
303.15 K, x1 = 0.1	742.46 ± 0.7	1254.3 ± 0.6	1.2 ± 0.01
303.15 K, x1 = 0.2001	743.56 ± 0.7	1249.3 ± 0.6	1.14 ± 0.01
303.15 K, x1 = 0.3	744.81 ± 0.7	1243.9 ± 0.6	1.08 ± 0.01
303.15 K, x1 = 0.4001	746.21 ± 0.7	1238 ± 0.6	1.02 ± 0.01
303.15 K, x1 = 0.5	747.8 ± 0.7	1231.9 ± 0.6	0.959 ± 0.012
303.15 K, x1 = 0.5999	749.62 ± 0.7	1224.8 ± 0.6	0.889 ± 0.012
303.15 K, x1 = 0.7	751.64 ± 0.7	1217.8 ± 0.5	0.826 ± 0.012
303.15 K, x1 = 0.7999	754.12 ± 0.7	1209.9 ± 0.6	0.762 ± 0.012
303.15 K, x1 = 0.9	757.08 ± 0.7	1201.4 ± 0.5	0.696 ± 0.011
313.15 K, x1 = 0.1	735.13 ± 0.7	1216.3 ± 0.6	1.01 ± 0.01
313.15 K, x1 = 0.2001	736.17 ± 0.7	1211.1 ± 0.6	0.965 ± 0.012
313.15 K, x1 = 0.3	737.34 ± 0.7	1205.4 ± 0.6	0.916 ± 0.012
313.15 K, x1 = 0.4001	738.65 ± 0.7	1199.2 ± 0.6	0.871 ± 0.012
313.15 K, x1 = 0.5	740.13 ± 0.7	1192.9 ± 0.7	0.858 ± 0.012
313.15 K, x1 = 0.5999	741.83 ± 0.7	1185.2 ± 0.6	0.8 ± 0.012
313.15 K, x1 = 0.7	743.69 ± 0.7	1177.6 ± 0.5	0.744 ± 0.012
313.15 K, x1 = 0.7999	745.98 ± 0.7	1169 ± 0.7	0.689 ± 0.011
313.15 K, x1 = 0.9	748.69 ± 0.7	1159.5 ± 0.5	0.63 ± 0.011
323.15 K, x1 = 0.1	727.76 ± 0.7	1178.9 ± 0.6	0.892 ± 0.012
323.15 K, x1 = 0.2001	728.74 ± 0.7	1173.5 ± 0.6	0.852 ± 0.012
323.15 K, x1 = 0.3	729.83 ± 0.7	1167.6 ± 0.6	0.813 ± 0.012
323.15 K, x1 = 0.4001	731.05 ± 0.7	1161.1 ± 0.6	0.774 ± 0.012
323.15 K, x1 = 0.5	732.41 ± 0.7	1154.4 ± 0.6	0.732 ± 0.012
323.15 K, x1 = 0.5999	733.97 ± 0.7	1146.3 ± 0.6	0.681 ± 0.011
323.15 K, x1 = 0.7	735.69 ± 0.7	1138.2 ± 0.5	0.634 ± 0.011
323.15 K, x1 = 0.7999	737.77 ± 0.7	1128.8 ± 0.8	0.589 ± 0.011
323.15 K, x1 = 0.9	740.22 ± 0.7	1118.3 ± 0.5	0.538 ± 0.011
333.15 K, x1 = 0.1	720.35 ± 0.7	1142.5 ± 0.6	0.783 ± 0.012
333.15 K, x1 = 0.2001	721.26 ± 0.7	1137 ± 0.6	0.752 ± 0.012
333.15 K, x1 = 0.3	722.26 ± 0.7	1130.7 ± 0.6	0.716 ± 0.012
333.15 K, x1 = 0.4001	723.38 ± 0.7	1124 ± 0.6	0.692 ± 0.021
333.15 K, x1 = 0.5	724.63 ± 0.7	1116.6 ± 0.6	0.641 ± 0.011
333.15 K, x1 = 0.5999	726.06 ± 0.7	1108.3 ± 0.6	0.606 ± 0.011
333.15 K, x1 = 0.7	727.61 ± 0.7	1099.9 ± 0.5	0.564 ± 0.011
333.15 K, x1 = 0.7999	729.48 ± 0.7	1089.6 ± 1	0.527 ± 0.011
333.15 K, x1 = 0.9	731.68 ± 0.7	1078.2 ± 0.5	0.48 ± 0.011
